Data published in paper PMC11873239, “A covalent chemical probe for Chikungunya nsP2 cysteine protease with antialphaviral activity and proteome-wide selectivity” (Scientific Reports, 2025).
Like-named read-outs stand apart in the source and are kept apart here.

What was measured:
EEEV-nLuc replicon [1] = assay: microbe, parasite or virus in culture; settings: Eastern equine encephalitis virus, Fibroblast, in Homo sapiens, 24 h, read-out: IC50 (EEEV-nLuc replicon)
EEEV-nLuc replicon [2] = settings: read-out: IC50 (EEEV-nLuc replicon)
[3] = tested on: 20 human cysteine proteases and three viral cysteine proteases
CHIKV nsP2pro = CHIKV nsP2pro (Chikungunya virus, UniProt F2YI08); settings: read-out: IC50 (CHIKV nsP2pro inhibition); cited from earlier work

Structure (SMILES)	IC50 (EEEV-nLuc replicon [1]) [nM]	IC50 (EEEV-nLuc replicon [2]) [nM]	inhibition across cysteine protease panel [3]	IC50 (CHIKV nsP2pro) [nM]
CCOc1ccccc1-c1cc(C(=O)NC/C=C/S(C)(=O)=O)on1 [Compound 3, (E)−3-(2-ethoxyphenyl)-N-(3-(methylsulfonyl)allyl)isoxazole-5-carboxamide]	930	930	no significant inhibition	–
CCOc1ccccc1-c1cc2n(n1)C(CS(C)(=O)=O)CNC2=O (stereo not shown) [Compound 2]	–	–	–	> 40000
